In brackets after ≈: the same amount, converted by molar mass. Activity calls are given as the source filed them. The calls are words filed in the database; no cut-off is given here.
Experiments:
[1] = Chemical stability in water; type: physicochemical; settings: buffer
[2] = Partition coefficient, log P of the compound; type: physicochemical; settings: octanol/water
[3] = Chemical stability in hydrogen peroxide upto 48 hrs; type: physicochemical; settings: read-out: Stability
[4] = Chemical stability in dilute base after 5 days; type: physicochemical; settings: read-out: Stability
[5] = Inhibition of IL1 beta production in glia cells; type: functional, cell-based; settings: Homo sapiens
Homo sapiens = species: Homo sapiens; test: Suppression of proinflammatory cytokine production in glia cells; type: functional, cell-based
[6] = Brain penetration, LogBB of the compound; type: ADME; settings: read-out: logBB (converted)
Cavia porcellus = test: Cardiotoxicity in guinea pig assessed as prolongation of QTc interval at 15 mg/kg, po; type: toxicity, organism-based; set-up: dose 15 mg/kg, route oral; settings: in vivo
[7] = Aqueous solubility of the compound; type: physicochemical; settings: buffer
Mus musculus [8] = test: Reduction of GFAP-positive astrocytes in human amyloid-beta induced mouse injury model at […], po for 2 weeks after 60 days of injury; type: functional, organism-based; set-up: dose 2.5 mg/kg
Mus musculus [9] = test: Reduction of F4/80 positive microglia in human amyloid-beta induced mouse injury model at […], po for 2 weeks after 60 days of injury; type: functional, organism-based; set-up: dose 2.5 mg/kg
Mus musculus [10] = test: Suppression of S100B production in human amyloid-beta induced mouse injury model at […], po for 2 weeks after 60 days of injury; type: functional, organism-based; set-up: dose 2.5 mg/kg
Mus musculus [11] = test: Suppression of IL1-beta production in human amyloid-beta induced mouse injury model at […], po for 2 weeks after 60 days of injury; type: functional, organism-based; set-up: dose 2.5 mg/kg
Mus musculus [12] = test: Suppression of TNFalpha production in human amyloid-beta induced mouse injury model at […], po for 2 weeks after 60 days of injury; type: functional, organism-based; set-up: dose 2.5 mg/kg
Mus musculus [13] = species: Mus musculus; test: Prevention of loss of synaptic protein synaptophytsin in human amyloid-beta induced mouse injury model; type: functional, organism-based
Mus musculus [14] = species: Mus musculus; test: Prevention of loss of synaptic protein PSD95 in human amyloid-beta induced mouse injury model; type: functional, organism-based
Mus musculus [15] = species: Mus musculus; test: Attenuation of hippocampal dependent behavioral deficits in mouse by Y maze test; type: functional, organism-based; settings: Hippocampus

For Cc1cc(-c2ccccc2)nnc1N1CCN(c2ncccn2)CC1.Cl.O, the Stability [1] was < 5%, the logP [2] was 2.3 and the remaining at 48 h [3] was < 10%. It also gave a remaining at 120 h [4] of 53%.

For Cc1cc(-c2ccccc2)nnc1N1CCN(c2cnccn2)CC1, the IC50 [5] was 46.1 µM.

With Cc1cc(-c2ccccc2)nnc1NCCN1CCOCC1 the Activity (Homo sapiens) was “inactive”.

In the case of Cc1cc(-c2ccccc2)nnc1N1CCN(c2ccccc2)CC1, the IC50 [5] is reported as 15.5 µM.

In the case of Cc1cc(-c2ccccc2)nnc1N1CCN(c2ncccn2)CC1 [MINOZAC FREE BASE], the Kp [6] is reported as 2.82, the IC50 [5] is reported as 8.3 µM and the Activity (Cavia porcellus) is reported as “Non-toxic”. The Solubility [7] was 16 ng/mL (≈ 0.0481 µM).

Compound c1ccc(-c2cc(-c3ccccc3)c(N3CCN(c4ncccn4)CC3)nn2)cc1 [listing 1 of 2 here] has a logP [2] of 2.7.

With c1ccc(-c2cc(-c3ccccc3)c(N3CCN(c4ncccn4)CC3)nn2)cc1 [listing 2 of 2 here] the Solubility [7] was < 2 ng/mL.

In the case of Cc1cc(-c2ccccc2)nnc1N1CCN(c2ncccn2)CC1, the Activity (Mus musculus [8]) is reported as “Active”, the Activity (Mus musculus [9]) is reported as “Active” and the Activity (Mus musculus [10]) is reported as “Active”. The Activity (Mus musculus [11]) was “Active”, the Activity (Mus musculus [12]) was “Active” and the Activity (Mus musculus [13]) was “Active”. For the same compound, the Activity (Mus musculus [14]) was “Active” and the Activity (Mus musculus [15]) was “Active”.

In the case of Cc1cc(-c2ccccc2)nnc1N1CCN(C)CC1, the IC50 [5] is reported as 48.9 µM.

Compound Cc1cc(-c2ccccc2)nnc1N1CCN(C2CCCCC2)CC1 has an IC50 [5] of 31.4 µM.

For Clc1cc(-c2ccccc2)nnc1N1CCN(c2ncccn2)CC1, the IC50 [5] was 9.5 µM.

From ChEMBL document CHEMBL1146276, “Development of a novel therapeutic suppressor of brain proinflammatory cytokine up-regulation that attenuates synaptic dysfunction and behavioral deficits” (Bioorg Med Chem Lett, 2007)
